In US11096985B2, “Antimicrobial peptides, their variants and uses” (priority 2015, dated 2021):
Where a SMILES comes first, the peptide text is derived from it. [ ]: non-standard residue; d: D form.

Tests used:
[1] = tested on: clinical strains of Escherichia coli; assay: MIC, clinical strains of E. coli; assay type: cell-based; parameters: unit: μg/ml; details: microdilution, Muller Hinton broth-cation adjusted, 0.02% BSA, 0.2% acetic acid
How it was run: (§1)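 By broth microdilution, Chain peptides from 0.125 to 128 μg/ml were tested against clinical strains adjusted to 5.0×10^5 cfu/ml, with bacteria in MH broth and yeasts in Potato dextrose broth. After 20–24 h at 37 °C, the lowest peptide concentration without visible growth was scored as MIC.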

[2] = tested on: clinical strains of Klebsiella pneumoniae; assay: MIC, clinical strains of K. pneumoniae; assay type: cell-based; parameters: unit: μg/ml; details: microdilution, Muller Hinton broth-cation adjusted, 0.02% BSA, 0.2% acetic acid
How it was run: as §1

[3] = tested on: clinical strains of Pseudomonas aeruginosa; assay: MIC, clinical strains of P. aeruginosa; assay type: cell-based; parameters: unit: μg/ml; details: microdilution, Muller Hinton broth-cation adjusted, 0.02% BSA, 0.2% acetic acid
How it was run: as §1

[4] = tested on: clinical strains of Serratia marcescens; assay: MIC, clinical strains of Serratia marcescens; assay type: cell-based; parameters: unit: µg/mL; details: microdilution, Muller Hinton broth-cation adjusted, 0.02% BSA, 0.2% acetic acid
How it was run: as §1

[5] = tested on: clinical strains of Proteus mirabilis; assay: MIC, clinical strains of Proteus mirabilis; assay type: cell-based; parameters: unit: µg/mL; details: microdilution, Muller Hinton broth-cation adjusted, 0.02% BSA, 0.2% acetic acid
How it was run: as §1

[6] = tested on: clinical strains of Enterobacter cloacae; assay: MIC, clinical strains of Enterobacter cloacae; assay type: cell-based; parameters: unit: μg/ml; details: microdilution, Muller Hinton broth-cation adjusted, 0.02% BSA, 0.2% acetic acid
How it was run: as §1

[7] = tested on: clinical strains of Staphylococcus aureus; assay: MIC, clinical strains of S. aureus; assay type: cell-based; parameters: unit: μg/ml; details: microdilution, Muller Hinton broth-cation adjusted, 0.02% BSA, 0.2% acetic acid
How it was run: as §1

[8] = tested on: clinical strains of Streptococcus pneumoniae; assay: MIC, clinical strains of Streptococcus pneumoniae; assay type: cell-based; parameters: unit: µg/mL; details: microdilution, Muller Hinton broth-cation adjusted, 0.02% BSA, 0.2% acetic acid
How it was run: as §1

[9] = tested on: clinical strains of Acinetobacter baumannii; assay: MIC, clinical strains of Acinetobacter baumannii; assay type: cell-based; details: microdilution, Muller Hinton broth-cation adjusted, 0.02% BSA, 0.2% acetic acid
How it was run: as §1

[10] = tested on: clinical strains of Acinetobacter johnsonii; assay type: cell-based; details: Acinetobacter johnsonii clinical strain 1; microdilution, Muller Hinton broth-cation adjusted, 0.02% BSA, 0.2% acetic acid
How it was run: as §1

[11] = tested on: clinical strains of Candida albicans; assay: MIC, clinical yeast strains, Candida albicans; assay type: cell-based; parameters: unit: μg/ml
How it was run: as §1

[12] = tested on: clinical strains of C. glabrata; assay: MIC, clinical yeast strains, C. glabrata; assay type: cell-based, Candida glabrata; parameters: unit: μg/ml
How it was run: as §1

[13] = tested on: clinical strains of C. parapsilosis; assay: MIC, clinical yeast strains, C. parapsilosis; assay type: cell-based, Candida parapsilosis; parameters: unit: μg/ml
How it was run: as §1

[14] = tested on: clinical strains of C. quillermondiae; assay: MIC, clinical yeast strains, C. quillermondiae; assay type: cell-based; details: C. quillermondiae clinical yeast strain 1
How it was run: as §1

With `CC(C)C[C@@H](NC(=O)[C@H](N)CCCNC(=N)N)C(=O)N[C@H](CCCCN)C(=O)N[C@H](Cc1c[nH]c2ccccc12)C(=O)N[C@H](Cc1ccccc1)C(=O)N[C@H](CC(C)C)C(=O)N[C@H](CC(C)C)C(=O)N[C@H](Cc1ccccc1)C(=O)N[C@H](CCCNC(=N)N)C(=O)N[C@H](CCCCN)C(=O)N[C@H](CCCNC(=N)N)C(=O)O` [Chain308D] (H-[dR][dL][dK][dW][dF][dL][dL][dF][dR][dK][dR]-OH) the Minimum inhibitory concentration ([1]; Escherichia coli clinical strain 1) was 1, the Minimum inhibitory concentration ([1]; Escherichia coli clinical strain 2) was 0.5 and the Minimum inhibitory concentration ([1]; Escherichia coli clinical strain 3) was 1. The Minimum inhibitory concentration ([1]; Escherichia coli clinical strain 4) was 1, the Minimum inhibitory concentration ([1]; Escherichia coli clinical strain 5) was 1 and the Minimum inhibitory concentration ([2]; Klebsiella pneumoniae clinical strain 1) was 4. The Minimum inhibitory concentration ([2]; Klebsiella pneumoniae clinical strain 2) was 4, the Minimum inhibitory concentration ([2]; Klebsiella pneumoniae clinical strain 3) was 4 and the Minimum inhibitory concentration ([2]; Klebsiella pneumoniae clinical strain 4) was 4. It also gave a Minimum inhibitory concentration ([2]; Klebsiella pneumoniae clinical strain 5) of 4, a Minimum inhibitory concentration ([3]; Pseudomonas aeruginosa clinical strain 1) of 8 and a Minimum inhibitory concentration ([3]; Pseudomonas aeruginosa clinical strain 2) of 8. It also gave a Minimum inhibitory concentration ([3]; Pseudomonas aeruginosa clinical strain 3) of 4, a Minimum inhibitory concentration ([3]; Pseudomonas aeruginosa clinical strain 4) of 4 and a Minimum inhibitory concentration ([3]; Pseudomonas aeruginosa clinical strain 5) of 4. For the same compound, the Minimum inhibitory concentration ([4]; Serratia marcescens clinical strain 1) was 128, the Minimum inhibitory concentration ([4]; Serratia marcescens clinical strain 2) was 128 and the Minimum inhibitory concentration ([4]; Serratia marcescens clinical strain 3) was 64. The Minimum inhibitory concentration ([4]; Serratia marcescens clinical strain 4) was >128, the Minimum inhibitory concentration ([4]; Serratia marcescens clinical strain 5) was 128 and the Minimum inhibitory concentration ([5]; Proteus mirabilis clinical strain 1) was >128. For the same compound, the Minimum inhibitory concentration ([5]; Proteus mirabilis clinical strain 2) was 32, the Minimum inhibitory concentration ([5]; Proteus mirabilis clinical strain 3) was 128 and the Minimum inhibitory concentration ([5]; Proteus mirabilis clinical strain 4) was >128. The Minimum inhibitory concentration ([5]; Proteus mirabilis clinical strain 5) was >128, the Minimum inhibitory concentration ([6]; Enterobacter cloacae clinical strain 1) was 2 and the Minimum inhibitory concentration ([6]; Enterobacter cloacae clinical strain 2) was 2. It also gave a Minimum inhibitory concentration ([6]; Enterobacter cloacae clinical strain 3) of 2, a Minimum inhibitory concentration ([6]; Enterobacter cloacae clinical strain 4) of 2 and a Minimum inhibitory concentration ([6]; Enterobacter cloacae clinical strain 5) of 2. For the same compound, the Minimum inhibitory concentration ([7]; Staphylococcus aureus clinical strain 1) was 1, the Minimum inhibitory concentration ([7]; Staphylococcus aureus clinical strain 2) was 2 and the Minimum inhibitory concentration ([7]; Staphylococcus aureus clinical strain 3) was 1. For the same compound, the Minimum inhibitory concentration ([7]; Staphylococcus aureus clinical strain 4) was 2, the Minimum inhibitory concentration ([7]; Staphylococcus aureus clinical strain 5) was 2 and the Minimum inhibitory concentration ([8]; Streptococcus pneumoniae clinical strain 1) was 8. It also gave a Minimum inhibitory concentration ([8]; Streptococcus pneumoniae clinical strain 2) of 4, a Minimum inhibitory concentration ([8]; Streptococcus pneumoniae clinical strain 3) of 8 and a Minimum inhibitory concentration ([8]; Streptococcus pneumoniae clinical strain 4) of 2. It also gave a Minimum inhibitory concentration ([8]; Streptococcus pneumoniae clinical strain 5) of 4, a Minimum inhibitory concentration ([9]; Acinetobacter baumannii clinical strain 1) of 4 and a Minimum inhibitory concentration ([9]; Acinetobacter baumannii clinical strain 2) of 4. The Minimum inhibitory concentration ([9]; Acinetobacter baumannii clinical strain 3) was 4, the Minimum inhibitory concentration ([9]; Acinetobacter baumannii clinical strain 4) was 2 and the Minimum inhibitory concentration ([9]; Acinetobacter baumannii clinical strain 5) was 2. The Minimum inhibitory concentration [10] was 4, the Minimum inhibitory concentration ([11]; Candida albicans clinical yeast strain 1) was 16 and the Minimum inhibitory concentration ([11]; Candida albicans clinical yeast strain 2) was 16. The Minimum inhibitory concentration ([11]; Candida albicans clinical yeast strain 3) was 16, the Minimum inhibitory concentration ([11]; Candida albicans clinical yeast strain 4) was 16 and the Minimum inhibitory concentration ([11]; Candida albicans clinical yeast strain 5) was 16. For the same compound, the Minimum inhibitory concentration ([12]; C. glabrata clinical yeast strain 1) was 16, the Minimum inhibitory concentration ([12]; C. glabrata clinical yeast strain 2) was 16 and the Minimum inhibitory concentration ([12]; C. glabrata clinical yeast strain 3) was 16. The Minimum inhibitory concentration ([12]; C. glabrata clinical yeast strain 4) was 16, the Minimum inhibitory concentration ([13]; C. parapsilosis clinical yeast strain 1) was 8 and the Minimum inhibitory concentration ([13]; C. parapsilosis clinical yeast strain 2) was 8. For the same compound, the Minimum inhibitory concentration ([13]; C. parapsilosis clinical yeast strain 3) was 8, the Minimum inhibitory concentration ([13]; C. parapsilosis clinical yeast strain 4) was 4 and the Minimum inhibitory concentration [14] was 4.
